Laboratory results: patent publication US20210085676A1, “TREATMENT FOR AGE- AND OXIDATIVE STRESS-ASSOCIATED MUSCLE ATROPHY AND WEAKNESS” (Oklahoma Medical Research Foundation, priority 2018, published 2021)
“Also recorded” adds a separate entry of the source.

Tests used:
SERCA = SERCA Ca2+-dependent ATPase activity in gastrocnemius muscle homogenates of treated mice; format: in vivo, mouse; settings: Sod1−/− mice, 50 mg/kg i.p. 3 times per week, 7 weeks
Method: Animals. The generation and characterization of the Sod1^−/− mice is described in detail elsewhere (3, 24). Female ≈2 months old C57BL/6J wild-type (WT; n=12-18) and Sod1^−/− mice (n=12-18) were divided into four groups and treated with either vehicle (10% DMSO, 10% Tween-80 in PBS) or CDN1163 (50 mg/kg) by intraperitoneal injection three times per week for 7 weeks. Care and management of the mice was executed according to The Guide for the Care and Use of Laboratory Animals and approved by the institutional Animal Care and Use Committee at the Oklahoma Medical Research Foundation (OKC, Okla., USA). SERCA activity. The measurement of SERCA activity was performed in the muscle homogenates at 37° C. using a spectrophotometric assay as previously described (26). CDN1163 rescues the SERCA activity in the Sod1^−/− mice. Ca^2+-dependent Ca^2+-ATPase activity was measured in gastrocnemius muscle homogenates to determine the effects of CDN1163 on SERCA function. […] Levels of SERCA1 and SERCA2 mRNA and protein were not changed in Sod1^−/− mice and were not altered by CDN1163 treatment (FIGS. 1C, 1D).

Sod1−/− mice = assay: Body mass and gastrocnemius muscle mass in Sod1−/− mouse model of accelerated sarcopenia; format: in vivo; settings: 50 mg/kg i.p. 3 times per week, 7 weeks
Method: Animals. The generation and characterization of the Sod1^−/− mice is described in detail elsewhere (3, 24). Female ≈2 months old C57BL/6J wild-type (WT; n=12-18) and Sod1^−/− mice (n=12-18) were divided into four groups and treated with either vehicle (10% DMSO, 10% Tween-80 in PBS) or CDN1163 (50 mg/kg) by intraperitoneal injection three times per week for 7 weeks. Care and management of the mice was executed according to The Guide for the Care and Use of Laboratory Animals and approved by the institutional Animal Care and Use Committee at the Oklahoma Medical Research Foundation (OKC, Okla., USA). CDN1163 prevents gastrocnemius muscle atrophy in the Sod1^−/− mice. […] At 2 months of age, neither absolute (FIG. 2B) nor normalized (FIG. 2C) gastrocnemius muscle mass is statistically lower in Sod1^−/− versus WT female mice. However, at the end of the 7 week period (˜4 months of age) there is a significant decrease in both absolute and normalized gastrocnemius muscle mass in the untreated Sod1^−/− mice compared to untreated WT mice (FIGS. 2B, 2C) consistent with the inventor's previous reports(3).

[1] = system: EDL muscle of Sod1−/− mice; assay: Contractile measurements in isolated EDL muscle of treated Sod1−/− mice; format: in vivo, mouse
Method: Animals. The generation and characterization of the Sod1^−/− mice is described in detail elsewhere (3, 24). Female ≈2 months old C57BL/6J wild-type (WT; n=12-18) and Sod1^−/− mice (n=12-18) were divided into four groups and treated with either vehicle (10% DMSO, 10% Tween-80 in PBS) or CDN1163 (50 mg/kg) by intraperitoneal injection three times per week for 7 weeks. Care and management of the mice was executed according to The Guide for the Care and Use of Laboratory Animals and approved by the institutional Animal Care and Use Committee at the Oklahoma Medical Research Foundation (OKC, Okla., USA). Contractile Measurements. Contractile force generation was measured in isolated extensor digitorum longus (EDL) muscle using a 1200A in vitro test system (Aurora Scientific Inc.) as described elsewhere (7). Briefly, muscles were individually tied to a model 300C servomotor (Aurora Scientific Inc.) and fixed within a water bath containing an oxygenated (95% O2, 5% CO2) Krebs-Ringer solution (in mM: 137 NaCl, 5 KCl, 1 MgSO4, 1 NaH2PO4, 24 NaHCO3, 2 CaCl2) maintained at 32 C. Computer controlled stimulation was applied through a model 701C stimulator (Aurora Scientific Inc.). Force frequency curves were generated with stimulation frequencies between 1 and 300 Hz, while the fatigue protocol consisted of repeated 150 Hz stimuli, every 5 s for 400 s. All data were recorded and analyzed using commercial software (DMC and DMA, Aurora Scientific). Specific force (N/cm^2) was measured using muscle length and mass. Example 3. CDN1163 prevents contractile dysfunction in the Sod1^−/− mice. In agreement with the inventor's previous findings, the inventors measured a significant decline in the in-vitro specific force measured in EDL muscle of Sod1^−/− mice (˜19%, p<0.05) when compared to WT mice (FIG. 3A). […] On the other hand, CDN1163 has no effect on the time to peak contraction (TTP) and half relaxation time (RT1/2) in the EDL muscle during twitch contractions (FIGS. 3B, 3C).

[2] = system: isolated mitochondria from the gastrocnemius muscle; assay: Mitochondrial H2O2 production (Amplex red-HRP) in isolated mitochondria from gastrocnemius muscle of treated mice; format: in vivo, mouse; settings: Sod1−/− mice
Method: (§1) Animals. The generation and characterization of the Sod1^−/− mice is described in detail elsewhere (3, 24). Female ≈2 months old C57BL/6J wild-type (WT; n=12-18) and Sod1^−/− mice (n=12-18) were divided into four groups and treated with either vehicle (10% DMSO, 10% Tween-80 in PBS) or CDN1163 (50 mg/kg) by intraperitoneal injection three times per week for 7 weeks. Care and management of the mice was executed according to The Guide for the Care and Use of Laboratory Animals and approved by the institutional Animal Care and Use Committee at the Oklahoma Medical Research Foundation (OKC, Okla., USA).
Mitochondrial function. Mitochondrial isolation and assays for H2O2 generation were performed in gastrocnemius muscle as described previously by the inventor's laboratory (27). Freshly isolated mitochondria were used for H2O2 release assay using the Amplex red-HRP method. Isolated mitochondrial are exposed to respiratory substrates and HRP (1 U Ml-1) in the assay buffer catalyzes the H2O2-dependent oxidation of non-fluorescent Amplex Red (80 μM) (Molecular Probes, Eugene, Oreg., USA) to fluorescent resofurin red (excitation λ=544 nm, emission λ=590 nm at 37° C.). The slope of the increase in fluorescence was converted to the rate of H2O2 production with standard curve.
CDN1163 attenuates mitochondrial dysfunction in the Sod1^−/− mice. It is well documented that elevated levels of cytosolic Ca^2+ lead to increased mitochondrial ROS production (16). The inventors have previously shown that the mitochondria from the Sod1^−/− mice show structural and functional defects (4, 5). To test whether the activation of SERCA pump function improves mitochondrial function, the inventors measured mitochondrial ROS production as H2O2 emission using isolated mitochondria from the gastrocnemius muscle. […] CDN1163 treatment in the Sod1^−/− mice returns glutamate/malate stimulated H2O2 generation to WT levels (FIG. 4A).

[3] = system: F2-isoprostanes in quadriceps muscle; assay: Oxidative damage by F2-isoprostane level in quadriceps muscle of treated mice; format: in vivo, mouse; settings: Sod1−/− mice
Method: as §1, with “USA). Analysis of oxidative damage by F2-isoprostane level. The levels of F2-isoprostanes in quadriceps muscle were measured using thin layer chromatography and GC-mass spectrometry as described previously (25). CDN1163 reduces the oxidative damage in the Sod1^−/− mice. The inventors have previously reported increased oxidative damage in the skeletal muscles of Sod1^−/− mice (6) that might be contributing to muscle atrophy and weakness. […] Therefore the inventors investigated whether CDN1163 can prevent oxidative stress-induced damage by measuring the levels of F2-isoprostanes, an indicator of lipid peroxidation, in the quadriceps muscles.” for “USA).”

old wildtype mice = assay: Aging study in old wildtype mice (24-26 months), 8-10 months treatment; format: in vivo, mouse
Text: The present inventors studied a group of old wildtype mice (24-26 months) with and without 8-10 months treatment with CDN1163. […] Further, the old mice show significant atrophy of the gastrocnemius muscles when compared to baseline group (≈10%, p<0.05). […] The inventors also measured the muscle force generating capacity in the mouse EDL muscles because of large body of literature showing reduced strength of extensor digitorum longus (EDL) muscle with aging. EDL muscle weakness in the old wild-type mice (≈11%, p<0.05) was consistent with previous studies, when compared to the baseline group. […] This effect was consistent at stimulation frequencies for maximal and sub-maximal (≈50% of maximal force) tetanic forces normalized for muscle mass. […] As such, CDN1163 was able to reduce muscle weakness, while not having side-effects related to muscle half relaxation time and time to maximal twitch force.

ob/ob mouse model = settings: reference 17; cited from earlier work
[4] = EDL muscle, twitch contractions, 7 weeks treatment
[5] = 50 mg/kg i.p. 3 times per week, 7 weeks
[6] = old wildtype mice 24-26 months, versus 16 month old baseline

For `Cc1ccc2cccc(NC(=O)c3ccc(OC(C)C)cc3)c2n1` [CDN1163, 4-(1-Methylethoxy)-N-(2-methyl-8-quinolinyl)-benzamide], which “Maximum Ca2+ dependent SERCA (SR Ca2+-ATPase) activity” value (SERCA) is on record?
Its value is “completely restored”.

And the “Increase in (normalized) gastrocnemius muscle mass versus untreated Sod1−/− mice” value (Sod1−/− mice; Sod1−/− mice)?
The value was 23%.

And the “Gastrocnemius muscle mass / atrophy” value (Sod1−/− mice; Sod1−/− mice, 50 mg/kg)?
Its value is “restores; also recorded: completely prevented this atrophy”.

And the “Body weight (body mass)” value (Sod1−/− mice; WT or Sod1−/− mice, 50 mg/kg)?
Its value is “did not alter”.

What about the “Half relaxation time (RT1/2)” value [1, 4] of the same molecule?
The value was “without affecting; also recorded: no effect”.

What about the “Time to twitch peak tension / time to peak contraction (TTP)” value [1, 4] of the same molecule?
The value was “without affecting; also recorded: no effect”.

What about the “Specific force of EDL muscle” value ([1]; Sod1−/− mice, 50 mg/kg i.p. 3 times per week, 7 weeks, measured in vitro, 50 mg/kg) of the same molecule?
Its value is “completely restored”.

What about the “Mitochondrial ROS generation” value [2, 5] of the same molecule?
The value was “reversed”.

What about the “Mitochondrial H2O2 production, glutamate/malate stimulated (state-2, complex 1-linked)” value ([2]; 7 weeks treatment) of the same molecule?
Its value is “reduces; also recorded: to WT levels”.

What about the “Mitochondrial H2O2 production, State-1 respiration” value ([2]; without external substrate, 7 weeks treatment) of the same molecule?
The value was “reduces; also recorded: do not show elevated levels”.

And the “Reduction of oxidative damage in muscle tissue measured as F2-isoprostanes” value [3, 5]?
Its value is 50%.

And the “F2-isoprostanes levels (lipid peroxidation)” value ([3]; quadriceps muscle, 7 weeks treatment)?
Its value is “reduces; also recorded: prevented this increase”.

And the “Muscle half relaxation time” value (old wildtype mice; old wildtype mice)?
Its value is “no significant effects”.

What about the “Time to maximal twitch force” value (old wildtype mice; old wildtype mice) of the same molecule?
The value was “no significant effects”.

What about the “Age-related atrophy of the gastrocnemius muscles” value (old wildtype mice; [6]) of the same molecule?
Its value is “completely prevented”.

What about the “Age-related reduction in body weight” value (old wildtype mice; [6]) of the same molecule?
The value was “did not prevent”.

What about the “Age-related decline in EDL muscle force” value (old wildtype mice; old wildtype mice, maximal and sub-maximal tetanic forces normalized for muscle mass) of the same molecule?
Its value is “prevented this decline in force”.

And the “Plasma levels of malondialdehyde (marker of oxidative stress)” value (ob/ob mouse model)?
The value was “reduce”.
